Laboratory results reported in ChEMBL document CHEMBL5608163, “Structure modification of anoplin for fighting resistant bacteria” (Eur J Med Chem, 2024).
Converted amounts (≈) assume the structure as drawn. Bridge positions count the residues as written; N and C are the ends. Square brackets hold non-standard residues; d marks the D form. Triazole bridges read from a SMILES are 1,4-linked. Peptide text beside a SMILES is read from it. I, II: the chains in the order shown. * marks the point of attachment. Lys(N3) = [N-]=[N+]=NCCCC[C@H](N)C(=O)O; Tridecanoyl = CCCCCCCCCCCCC(=O)*; Undecanoyl = CCCCCCCCCCC(=O)*; Pra = C#CC[C@H](N)C(=O)O

Legend:
Zymomonas mobilis [1] = assay: Antibacterial activity against Zymomonas mobilis ATCC 10988 assessed as reduction in bacterial growth; assay type: functional
Escherichia coli [2] = assay: Antibacterial activity against Escherichia coli DH5a assessed as bacterial growth inhibition; assay type: functional
[3] = tested on: Mycolicibacterium smegmatis; assay: Antimycobacterial activity against Mycobacterium smegmatis mc2 155 assessed as reduction in bacterial cell growth incubated for 48 hrs by resazurin dye based assay; assay type: functional
[4] = Hemolytic activity in human erythrocytes measured after 1 hrs by microplate reader analysis; assay type: toxicity, cell-based, Erythrocyte
Bacillus subtilis [5] = assay: Antibacterial activity against Bacillus subtilis assessed as bacterial growth inhibition; assay type: functional
Pseudomonas aeruginosa [6] = assay: Antibacterial activity against Pseudomonas aeruginosa PAO1 assessed as reduction in bacterial growth; assay type: functional
Pseudomonas aeruginosa [7] = assay: Antibacterial activity against Pseudomonas aeruginosa PAO1 assessed as bacterial growth inhibition; assay type: functional
[8] = Hemolytic activity in human erythrocytes; assay type: toxicity, cell-based, Erythrocyte
Bacillus subtilis [9] = assay: Antibacterial activity against Bacillus subtilis assessed as reduction in bacterial growth; assay type: functional
Zymomonas mobilis [10] = assay: Antibacterial activity against Zymomonas mobilis ATCC 10988 assessed as bacterial growth inhibition; assay type: functional
Escherichia coli [11] = assay: Antibacterial activity against Escherichia coli DH5a assessed as reduction in bacterial growth; assay type: functional
[12] = tested on: Mycolicibacterium smegmatis; assay: Antibacterial activity against Mycobacterium smegmatis mc2 155 assessed as bacterial growth inhibition; assay type: functional
[13] = Hemolytic activity in human RBC; assay type: toxicity, cell-based, Erythrocyte; details: red blood cells
Staphylococcus aureus [14] = assay: Antimicrobial activity against Staphylococcus aureus ATCC 25923 assessed as reduction in microbial growth incubated for 18 to 20 hrs by Mueller-Hinton broth based microdilution method; assay type: functional; details: time 18-20 hrs
Escherichia coli [15] = assay: Antibacterial activity against Escherichia coli ATCC 25922 assessed as bacterial growth inhibition incubate for 18 to 20 hrs by MH broth based assay; assay type: functional; details: time 18-20 hrs
Bacillus subtilis [16] = assay: Antimicrobial activity against Bacillus subtilis ATCC 23857 assessed as reduction in microbial growth incubated for 18 to 20 hrs by Mueller-Hinton broth based microdilution method; assay type: functional; details: time 18-20 hrs
Enterococcus faecium = assay: Antimicrobial activity against Enterococcus faecium assessed as reduction in microbial growth incubated for 18 to 20 hrs by Mueller-Hinton broth based microdilution method; assay type: functional; details: time 18-20 hrs
[17] = Hemolytic activity in mouse RBC incubated for 1 hr; assay type: toxicity, cell-based, Erythrocyte; details: red blood cells
Bacillus subtilis [18] = assay: Antibacterial activity against Bacillus subtilis ATCC 23857 assessed as reduction in bacterial growth measured after 18 hrs by CLSI protocol-based Mueller-Hinton broth dilution method; assay type: functional
Pseudomonas aeruginosa [19] = assay: Antibacterial activity against Pseudomonas aeruginosa ATCC 27853 assessed as reduction in bacterial growth measured after 18 hrs by CLSI protocol-based Mueller-Hinton broth dilution method; assay type: functional
Erythrocyte = assay: Hemolytic activity in human red blood cells; assay type: toxicity, cell-based; details: erythrocyte
Escherichia coli [20] = assay: Antibacterial activity against Escherichia coli ATCC 25922 assessed as reduction in bacterial growth measured after 18 hrs by CLSI protocol-based Mueller-Hinton broth dilution method; assay type: functional
Staphylococcus aureus [21] = assay: Antibacterial activity against Staphylococcus aureus ATCC 25923 assessed as reduction in bacterial growth measured after 18 hrs by CLSI protocol-based Mueller-Hinton broth dilution method; assay type: functional

SMILES	MIC (Zymomonas mobilis [1]) [µM]	MIC [3] [µM]	MIC (Pseudomonas aeruginosa [6]) [µM]	HC50 [8] [µM]	MIC (Bacillus subtilis [9]) [µM]	MIC (Escherichia coli [11]) [µM]	HC50 [13] [µM]	MIC (Staphylococcus aureus [14]) [µM]	MIC (Escherichia coli [15]) [µM]	MIC (Bacillus subtilis [16]) [µM]	MIC (Enterococcus faecium) [µM]	HC50 at 1 h [17] [µM]	MIC (Bacillus subtilis [18]) [µM]	MIC (Pseudomonas aeruginosa [19]) [µM]	HC10 (Erythrocyte) [µM]	MIC (Escherichia coli [20]) [µM]	MIC (Staphylococcus aureus [21]) [µM]	other results
CCCCCCCCCCC(=O)NCC(=O)N[C@@H](CC(C)C)C(=O)N[C@@H](CC(C)C)C(=O)N[C@@H](CCCCN)C(=O)N[C@@H](Cc1ccccc1)C(=O)N[C@H](C(=O)N[C@@H](CCCCN)C(=O)N[C@@H](CCCCN)C(=O)N[C@@H](CC(C)C)C(=O)N[C@@H](CC(C)C)C(N)=O)[C@@H](C)CC (Undecanoyl-GLLKFIKKLL-NH2)	3.77 (≈ 5.05 µg/mL)	3.77 (≈ 5.05 µg/mL)	3.77 (≈ 5.05 µg/mL)	< 377	8 (≈ 10.7 µg/mL)	22.6 (≈ 30.3 µg/mL)												MIC (Escherichia coli [2]): > 170 µM; HC50 at 1 h [4]: 148 µM; MIC (Bacillus subtilis [5]): > 170 µM; MIC (Pseudomonas aeruginosa [7]): 33.9 µM (≈ 45.4 µg/mL); MIC (Zymomonas mobilis [10]): 12.7 µM (≈ 17 µg/mL); MIC [12]: > 168 µM
CC(C)C[C@H](NC(=O)[C@H](CC(C)C)NC(=O)[C@H](CCCCN)NC(=O)[C@H](CCCCN)NC(=O)[C@H](Cc1c[nH]c2ccccc12)NC(=O)[C@H](Cc1c[nH]c2ccccc12)NC(=O)[C@H](CCCCN)NC(=O)[C@H](CC(C)C)NC(=O)[C@H](CC(C)C)NC(=O)[C@@H](N)CCCCN)C(N)=O (H-KLLKWWKKLL-NH2)							> 200	16	16 (≈ 21.7 µg/mL)	8	8	> 200						
CCCCCCCCCCCCC(=O)NCC(=O)N[C@@H](CC(C)C)C(=O)N[C@@H](CC(C)C)C(=O)N[C@@H](CCCCN)C(=O)N[C@@H](Cc1ccccc1)C(=O)N[C@H](C(=O)N[C@@H](CCCCN)C(=O)N[C@@H](CCCCN)C(=O)N[C@@H](CC(C)C)C(=O)N[C@@H](CC(C)C)C(N)=O)[C@@H](C)CC (Tridecanoyl-GLLKFIKKLL-NH2)	22.1 (≈ 30.3 µg/mL)	3.69 (≈ 5.05 µg/mL)	3.69 (≈ 5.05 µg/mL)	< 370	8 (≈ 10.9 µg/mL)	22.1 (≈ 30.3 µg/mL)												
CC[C@H](C)[C@H](NC(=O)[C@H](CCCNC(=N)N)NC(=O)[C@H](CCCCN)NC(=O)[C@H](CC(C)C)NC(=O)[C@H](CC(C)C)NC(=O)CNC(=O)[C@H](Cc1cn(CCCC[C@H](NC(C)=O)C(=O)N[C@@H](CCCNC(=N)N)C(=O)N[C@@H](CCCNC(=N)N)C(=O)N[C@@H](Cc2c[nH]c3ccccc23)C(=O)N[C@@H](Cc2c[nH]c3ccccc23)C(=O)N[C@@H](CCCNC(=N)N)C(=O)N[C@@H](Cc2ccccc2)C(N)=O)nn1)NC(C)=O)C(=O)N[C@@H](CCCCN)C(=O)N[C@H](C(=O)N[C@@H](CC(C)C)C(=O)N[C@@H](CC(C)C)C(N)=O)[C@@H](C)O (I: Ac-[Pra]GLLKRIKTLL-NH2 / II: Ac-[Lys(N3)]RRWWRF-NH2; triazole I:1-II:1)													4 (≈ 9.97 µg/mL)	16 (≈ 39.9 µg/mL)	> 150	8 (≈ 19.9 µg/mL)	4 (≈ 9.97 µg/mL)	
CC[C@H](C)[C@H](NC(=O)[C@H](CCCNC(=N)N)NC(=O)[C@H](CCCCN)NC(=O)[C@H](CC(C)C)NC(=O)[C@H](CC(C)C)NC(=O)CNC(=O)[C@H](CCCCn1cc(C[C@H](NC(C)=O)C(=O)NCC(=O)N[C@@H](CC(C)C)C(=O)N[C@@H](CC(C)C)C(=O)N[C@@H](CCCCN)C(=O)N[C@@H](CCCNC(=N)N)C(=O)N[C@H](C(=O)N[C@@H](CCCCN)C(=O)N[C@H](C(=O)N[C@@H](CC(C)C)C(=O)N[C@@H](CC(C)C)C(N)=O)[C@@H](C)O)[C@@H](C)CC)nn1)NC(C)=O)C(=O)N[C@@H](CCCCN)C(=O)N[C@H](C(=O)N[C@@H](CC(C)C)C(=O)N[C@@H](CC(C)C)C(N)=O)[C@@H](C)O (I: Ac-[Lys(N3)]GLLKRIKTLL-NH2 / II: Ac-[Pra]GLLKRIKTLL-NH2; triazole I:1-II:1)													2 (≈ 5.28 µg/mL)	16 (≈ 42.2 µg/mL)	150	4 (≈ 10.6 µg/mL)	8 (≈ 21.1 µg/mL)	
CC(C)C[C@H](NC(=O)[C@H](CC(C)C)NC(=O)[C@H](CCCCN)NC(=O)[C@H](CCCCN)NC(=O)[C@H](Cc1c[nH]c2ccccc12)NC(=O)[C@H](CCCNC(=N)N)NC(=O)[C@H](CCCCN)NC(=O)[C@H](CC(C)C)NC(=O)[C@H](CC(C)C)NC(=O)[C@@H](N)Cc1c[nH]c2ccccc12)C(N)=O							> 200	32	64 (≈ 88.5 µg/mL)	16	16	> 200						
